According to patent US20150010933A1, “Novel Screening Methods” (The Trustees of the University of Pennsylvania, priority 2012, published 2015):

How the values were obtained:
Format in all cases: biochemical
[1] = target: ATP synthesis activity of M. smegmatis membranes; test: ATP synthesis assay with M. smegmatis membranes (luciferase/luciferin luminescence, 384 well plate); settings: 10 μg/ml M. smegmatis membrane, 1 mM NADH, 25 μM ADP, 10 mM K-Pi, pH 7.0, total volume 20 μL; read-out: IC50, ATP synthesis activity normalized to the positive control
[2] = system: NADH oxidase activity of M. smegmatis membranes; test: NADH oxidase activity assay with M. smegmatis membranes; settings: 0.2 mM NADH, 10 μg/ml membrane, pH 7.0
Method: FIG. 10 is a graph illustrating the effect of TMC207 on the NADH oxidase activity of M. smegmatis membranes. The assay was carried out in the presence of various concentrations of TMC207. The reactions contained 0.2 mM NADH and 10 μg/ml membrane in 50 mM Hepes/2 mM MgCl2 (pH 7.0) buffer.

[3] = system: ΔpH across M. smegmatis membranes; test: ΔpH across the membranes monitored with pH sensitive fluorescent dye ACMA; settings: 1 μM ACMA, 10 μg/ml M. smegmatis membrane, initiated with 1 mM NADH, pH 7.0
Method: FIG. 11 is a graph illustrating the effect of TMC207 on ΔpH across the membranes. ΔpH was monitored by using a pH sensitive fluorescent dye 9-amino-6-chloro-2-methoxyaridine (ACMA). The reactions contained 1 μM ACMA, 10 μg/ml M. smegmatis membrane in 5 mM Hepes/2 mM MgCl2 buffer (pH 7.0). The reaction was initiated by addition of 1 mM NADH (open symbols) and NADH was omitted in negative controls (closed symbols). Fluorescence was measured by a plate reader with 420 nm for excitation and 510 nm for emission wavelength.

Compound: COc1nc2ccc(Br)cc2cc1[C@@H](c1ccccc1)[C@@](O)(CCN(C)C)c1cccc2ccccc12 [TMC207, (1R,2S)-1-(6-bromo-2-methoxy-3-quinolyl)-4-dimethylamino-2-(1-naphthyl)-1-phenyl-butan-2-ol]
- IC50 [1]: 0.147 nM
- inhibition of NADH oxidase activity ([2]; at 10 μM): did not inhibit
- inhibition of NADH oxidase activity ([2]; at only high concentrations): marginal inhibition
- effect on ΔpH across the membrane [3]: did not affect
